Source: US20250171462A1 (NICO Therapeutics, Inc., priority 2022, published 2025)
Where two headings read alike, the source gives them in different places.

Biological target: T1, full-length SARM1 (FL-SARM1) (Homo sapiens, UniProt Q6SZW1)
T1 sequence (Q6SZW1 28-724): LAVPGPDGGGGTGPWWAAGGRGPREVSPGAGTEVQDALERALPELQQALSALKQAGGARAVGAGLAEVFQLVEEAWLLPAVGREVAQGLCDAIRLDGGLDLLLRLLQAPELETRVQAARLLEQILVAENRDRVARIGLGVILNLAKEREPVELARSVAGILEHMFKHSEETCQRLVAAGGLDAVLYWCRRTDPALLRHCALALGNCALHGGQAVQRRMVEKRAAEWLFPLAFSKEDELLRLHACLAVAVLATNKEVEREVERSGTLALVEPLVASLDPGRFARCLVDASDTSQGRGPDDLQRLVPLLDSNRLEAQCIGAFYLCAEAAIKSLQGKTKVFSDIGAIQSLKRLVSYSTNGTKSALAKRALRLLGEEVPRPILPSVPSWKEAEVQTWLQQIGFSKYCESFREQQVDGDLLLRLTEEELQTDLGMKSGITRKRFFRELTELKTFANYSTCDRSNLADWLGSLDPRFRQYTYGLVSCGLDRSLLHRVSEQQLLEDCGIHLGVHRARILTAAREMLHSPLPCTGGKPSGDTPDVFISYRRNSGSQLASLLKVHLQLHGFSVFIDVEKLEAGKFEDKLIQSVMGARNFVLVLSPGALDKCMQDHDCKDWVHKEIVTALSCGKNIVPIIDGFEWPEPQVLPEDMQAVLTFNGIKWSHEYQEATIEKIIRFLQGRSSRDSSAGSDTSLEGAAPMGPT
Experiment: FL-SARM1 cellular lysate assay (NAD/NADH-Glo detection of remaining NAD+, NMN-activated)

[1] = Activity (IC50 class), 11 point curve
[2] = Activity (μM) (IC50), 11 point curve
[3] = read-out: Activity (IC50 class), 11 point curve

Protocol: Preparation of full-length SARM1 (FL-SARM1) lysate: HEK293T cells (ATCC: CRL-3216) were grown on 150 mm TC-treated dishes to 80-90% confluency in complete DMEM (DMEM (Thermo Fisher: 11965175) supplemented with 10% HI—FBS (VWR: 10802-772), 1× Pen/Strep (Thermo Fisher: 15140122), 1×NEAA (Thermo Fisher: 1140050), 1× glutamax (Thermo Fisher: 35050061), and 1 mM sodium pyruvate (Thermo Fisher: 11360070)) at 37° C. and 5% CO2. One hour prior to transfection, the media was replaced with fresh, 37° C. complete DMEM (20 mL per one 150 mm dish) supplemented with additional 10 mM glucose (Alfa Aesar AAJ60067EQE). Per one 150 mm dish, 30 μg FL-SARM1 (SEQ. ID. 1; cloned in-house) plasmid was dissolved in 1 mL DMEM at ambient temperature and were mixed by inverting the tube 8-10 times. 90 μL of GenJet™ in vitro DNA transfection reagent (Ver2) was dissolved in 1 mL DMEM at ambient temperature and were mixed by inverting the tube 8-10 times. The plasmid and transfection agent solutions were combined, mixed by 8-10 inversions and incubated for 10 minutes at ambient temperature. 2 mL of this transfection mixture was added to each dish containing HEK293T cells as prepared above followed by a gentle mixing of 4-5 horizontal rotations. The dishes were incubated at 37° C. and 5% CO2 for 24 h. The dishes were removed from the incubator, the medium was aspirated and the cells were scraped off using cell scrapers in ice-cold 1×PBS (5 mL/dish, Thermo Fisher Scientific 10010023). The collected cells were centrifuged at 300 g for 5 minutes at 4° C. The supernatant was aspirated and the pellet was frozen at −80° C. until needed. The cell pellet from 30 dishes was dissolved in 30 mL 1×PBS supplemented with 4 tablets of Complete, Mini EDTA-free protease inhibitor cocktail at 4° C. This mixture was sonicated on ice for 10 minutes at 50% amplitude with a 1 second on/1 second off interval using a Model 120 sonicator (Thermo Fisher Scientific, FB120110). The lysate was centrifuged at 16000 g for 10 minutes at 4° C.
To a white 384-well Proxiplate (PerkinElmer, PE-6008280) was added 50 nL/well of a DMSO solution containing test compounds followed by 7.5 μL/well of a 0.067 mg/mL solution of SARMi cellular lysate in reaction buffer (DPBS containing CHAPSO (0.1%) and fatty acid free BSA (0.032%)). The plate was centrifuged for 1 minute at 1000 RPM and then placed in an incubator at 23° C. for 15 minutes. To the wells were added 2.5 μL/well of a solution containing 40 M NAD^+ and 4 mM nicotinamide mononucleotide (NMN) in reaction buffer. The plate was centrifuged for 1 min at 1000 RPM, the plate was sealed and placed in an incubator at 23° C. for 3.5 hours before adding 3.5 μL/well of NAD/NADH-Glo™ solution (preparation as described by Promega using the extended detection protocol). The plate was centrifuged for 1 minute at 1000 RPM and then incubated at 23° C. for 20 minutes. 1 μL/well of a 3.625 mM solution of menadione in DMSO was added and the plate was centrifuged for 1 minute at 1000 RPM. Relative light units (RLU) were recorded using an Envision plate reader at a height of 6.5 mm.
IC50 values were calculated from an 11 point curve using ½ log dilutions using a four-parameter logistic regression curve fit.

| SMILES | IC50 [1] | IC50 [2] | IC50 [3] |
| --- | --- | --- | --- |
| Cc1ccc(NC(=O)N2C[C@H]3C[C@@H]2CN3c2ccccc2)cc1-c1ccccn1 [Example 38, (1R,4R)-N-(4-methyl-3-(pyridin-2-yl)phenyl)-5-phenyl-2,5-diazabicyclo[2.2.1]heptane-2-carboxamide] | 1 to 10 µM | 7.7 µM |  |
| Cc1ccc(NC(=O)N2C3C[C@H](O)C[C@H]2C3)cc1-c1ccccn1 [Example 39, trans-3-hydroxy-N-(4-methyl-3-(pyridin-2-yl)phenyl)-6-azabicyclo[3.1.1]heptane-6-carboxamide] | 1 to 10 µM | 3.8 µM |  |
| Cc1ccc(NC(=O)N2C3CCCC2C3)cc1-c1ccc(F)cn1 [Example 40, N-(3-(5-fluoropyridin-2-yl)-4-methylphenyl)-6-azabicyclo[3.1.1]heptane-6-carboxamide] |  | 0.08 µM | 0.0001 to 1 µM |
| CO[C@@H]1C[C@@H]2C[C@H](C1)N2C(=O)Nc1ccc(C)c(-c2ccccn2)c1 [Example 41, cis-3-methoxy-N-(4-methyl-3-(pyridin-2-yl)phenyl)-6-azabicyclo[3.1.1]heptane-6-carboxamide] |  | 0.5 µM | 0.0001 to 1 µM |
| C[C@@H]1C[C@@H]2C[C@H](C1)N2C(=O)Nc1ccc(C#N)c(-c2ccccn2)c1 [Example 42, cis-N-(4-cyano-3-(pyridin-2-yl)phenyl)-3-methyl-6-azabicyclo[3.1.1]heptane-6-carboxamide] |  | 0.05 µM | 0.0001 to 1 µM |
| Cc1cc(F)c(NC(=O)N2C3CCCC2C3)cc1-c1ccccn1 [Example 43, N-(2-fluoro-4-methyl-5-(pyridin-2-yl)phenyl)-6-azabicyclo[3.1.1]heptane-6-carboxamide] |  | 0.2 µM | 0.0001 to 1 µM |
| Cc1ccc(NC(=O)N2C3CCCC2C3)cc1-c1cccc(C#N)n1 [Example 44, N-(3-(6-cyanopyridin-2-yl)-4-methylphenyl)-6-azabicyclo[3.1.1]heptane-6-carboxamide] |  | 0.1 µM | 0.0001 to 1 µM |
| CO[C@H]1C[C@@H]2C[C@H](C1)N2C(=O)Nc1ccc(C)c(-c2ccccn2)c1 [Example 45, trans-3-Methoxy-N-(4-methyl-3-(pyridin-2-yl)phenyl)-6-azabicyclo[3.1.1]heptane-6-carboxamide] |  | 0.5 µM | 0.0001 to 1 µM |
| O=C(Nc1ccc(Cl)c(-c2ccc(F)cn2)c1)N1C2CCCC1C2 [Example 46, N-(4-chloro-3-(5-fluoropyridin-2-yl)phenyl)-6-azabicyclo[3.1.1]heptane-6-carboxamide] |  | 0.2 µM | 0.0001 to 1 µM |
| Cc1ccc(NC(=O)N2C3C[C@@H](C)C[C@@H]2C3)cc1-c1ncc(F)cn1 [Example 50, trans-N-(3-(5-fluoropyrimidin-2-yl)-4-methylphenyl)-3-methyl-6-azabicyclo[3.1.1]heptane-6-carboxamide] |  | 0.02 µM | 0.0001 to 1 µM |
| Cc1ccc(NC(=O)N2C3C[C@H](C)C[C@@H]2C3)cc1-c1ncc(F)cn1 [Example 51, cis-N-(3-(5-fluoropyrimidin-2-yl)-4-methylphenyl)-3-methyl-6-azabicyclo[3.1.1]heptane-6-carboxamide] |  | 0.01 µM | 0.0001 to 1 µM |
| Cc1ccc(NC(=O)N2C3CCCC2C3)cc1-c1ncccn1 [Example 52, N-(4-methyl-3-(pyrimidin-2-yl)phenyl)-6-azabicyclo[3.1.1]heptane-6-carboxamide] |  | 0.5 µM | 0.0001 to 1 µM |
| Cc1ccc(NC(=O)N2C3CCCC2C3)cc1-c1cnccn1 [Example 53, N-(4-methyl-3-(pyrazin-2-yl)phenyl)-6-azabicyclo[3.1.1]heptane-6-carboxamide] |  | 0.8 µM | 0.0001 to 1 µM |
| Cc1ccc(NC(=O)N2C3CCCC2C3)cc1-c1cccnn1 [Example 54, N-(4-methyl-3-(pyridazin-3-yl)phenyl)-6-azabicyclo[3.1.1]heptane-6-carboxamide] |  | 0.5 µM | 0.0001 to 1 µM |
| Cc1ccc(NC(=O)N2C3CCCC2C3)cc1-c1ncc(F)cn1 [Example 55, N-(3-(5-fluoropyrimidin-2-yl)-4-methylphenyl)-6-azabicyclo[3.1.1]heptane-6-carboxamide] |  | 0.2 µM | 0.0001 to 1 µM |
| O=C(Nc1ccc(C(F)(F)F)c(-c2ccc(F)cn2)c1)N1C2CCCC1C2 [Example 56, N-(3-(5-fluoropyridin-2-yl)-4-(trifluoromethyl)phenyl)-6-azabicyclo[3.1.1]heptane-6-carboxamide] | 1 to 10 µM | 2.2 µM |  |
| O=C(Nc1ccc(C(F)(F)F)c(-c2ccc(F)cn2)c1)N1C2CCC1c1ccccc12 [Example 57, N-(3-(5-fluoropyridin-2-yl)-4-(trifluoromethyl)phenyl)-1,2,3,4-tetrahydro-1,4-epiminonaphthalene-9-carboxamide] | 1 to 10 µM | 3.7 µM |  |

| SMILES | IC50 [1] | IC50 [2] | IC50 [3] |
| --- | --- | --- | --- |
| COc1cccnc1-c1cc(NC(=O)N2C3CCCC2C3)ccc1C [Example 58, N-(3-(3-methoxypyridin-2-yl)-4-methylphenyl)-6-azabicyclo[3.1.1]heptane-6-carboxamide] | > 10 µM | 12 µM |  |
| O=C(Nc1ccc(OC(F)(F)F)c(-c2ccccn2)c1)N1C2CCCC1C2 [Example 59, N-(3-(pyridin-2-yl)-4-(trifluoromethoxy)phenyl)-6-azabicyclo[3.1.1]heptane-6-carboxamide] |  | 0.6 µM | 0.0001 to 1 µM |
| COc1ccc(-c2cc(NC(=O)N3C4CCCC3C4)ccc2C)nn1 [Example 60, N-(3-(6-methoxypyridazin-3-yl)-4-methyl-phenyl)-6-azabicyclo[3.1.1]heptane-6-carboxamide] | 1 to 10 µM | 1.1 µM |  |
| Cc1ccc(NC(=O)N2C3CCCC2C3)cc1-c1ccc(C(F)(F)F)nn1 [Example 61, N-(4-methyl-3-(6-(trifluoromethyl)pyridazine-3-yl)phenyl)-6-azabicyclo[3.1.1]heptane-6-carboxamide] | > 10 µM | 11 µM |  |
| Cc1ccc(NC(=O)N2C3C[C@@H](C)C[C@H]2C3)cc1-c1cccnn1 [Example 62, cis-3-methyl-N-(4-methyl-3-pyridazin-3-yl-phenyl)-6-azabicyclo[3.1.1]heptane-6-carboxamide] |  | 0.02 µM | 0.0001 to 1 µM |
| Cc1ccc(NC(=O)N2C3CCCC2C3)cc1-c1cc(C#N)cnn1 [Example 63, N-(3-(5-cyanopyridazin-3-yl)-4-methylphenyl)-6-azabicyclo[3.1.1]heptane-6-carboxamide] |  | 0.7 µM | 0.0001 to 1 µM |
| C[C@@H]1CC2C[C@H](C1)N2C(=O)Nc1ccc(Cl)c(-c2cccnn2)c1 [Example 64, cis-N-(4-chloro-3-pyridazin-3-ylphenyl)-3-methyl-6-azabicyclo[3.1.1]heptane-6-carboxamide] |  | 0.1 µM | 0.0001 to 1 µM |
| COc1ccnc(-c2cc(NC(=O)N3C4CCCC3C4)ccc2C)n1 [Example 65, N-(3-(4-methoxypyrmidin-2-yl)-4-methyl-phenyl)-6-azabicyclo[3.1.1]heptane-6-carboxamide] | 1 to 10 µM | 2.3 µM |  |
| Cc1ccc(NC(=O)N2C3CCCC2C3)cc1-c1cc(C(F)(F)F)cnn1 [Example 66, N-(4-methyl-3-(5-(trifluoromethyl)pyridazine-3-yl)phenyl)-6-azabicyclo[3.1.1]heptane-6-carboxamide] |  | 0.5 µM | 0.0001 to 1 µM |
| Cc1ccc(NC(=O)N2C3CCCC2C3)cc1-c1nccc(C#N)n1 [Example 67, N-(3-(4-cyanopyrimidin-2-yl)-4-methyl-phenyl)-6-azabicyclo[3.1.1]heptane-6-carboxamide] |  | 0.6 µM | 0.0001 to 1 µM |
| Cc1ccc(NC(=O)N2C3CCCC2C3)cc1-c1nccc(C(F)(F)F)n1 [Example 68, N-(4-methyl-3-(4-(trifluoromethyl)pyrimidin-2-yl)phenyl)-6-azabicyclo[3.1.1]heptane-6-carboxamide] | 1 to 10 µM | 4.7 µM |  |
| Cc1c(F)cc(NC(=O)N2C3CCCC2C3)cc1-c1ccccn1 [Example 69, N-(3-fluoro-4-methyl-5-(pyridin-2-yl)phenyl)-6-azabicyclo[3.1.1]heptane-6-carboxamide] |  | 0.08 µM | 0.0001 to 1 µM |
| Cc1cc(NC(=O)N2C3CCCC2C3)cc(-c2ccccn2)c1C [Example 71, N-(3,4-dimethyl-5-(pyridin-2-yl)phenyl)-6-azabicyclo[3.1.1]heptane-6-carboxamide] | > 10 µM | 10.9 µM |  |
| Cc1ccc(NC(=O)N2C3CC2CN(c2ncccn2)C3)cc1-c1ccccn1 [Example 72, N-(4-methyl-3-(pyridin-2-yl)phenyl)-3-(pyrimidin-2-yl)-3,6-diazabicyclo[3.1.1]heptane-6-carboxamide] | 1 to 10 µM | 1.2 µM |  |
| Cc1ccc(NC(=O)C2C3CCC2CC3)cc1-c1ccccn1 (stereo not drawn) [Example 73, N-(4-methyl-3-(pyridin-2-yl)phenyl)bicyclo[2.2.1]heptane-7-carboxamide] |  | 0.09 µM | 0.0001 to 1 µM |
| Cc1ccc(NC(=O)N2C3C[C@H](C#N)C[C@@H]2C3)cc1-c1ccccn1 [Example 74, cis-3-cyano-N-(4-methyl-3-(pyridin-2-yl)phenyl)-6-azabicyclo[3.1.1]heptane-6-carboxamide] |  | 0.3 µM | 0.0001 to 1 µM |
